Results from US20040229791A1, “Compositions and methods of modulating TGF-beta activity by fatty acids” (priority 2002, published 2004).
Each block holds one molecule with its values, some of them ahead of it.

What was measured:
TGF-β1-α2M* complex = target: T1, TGF-β1-α2M* complex (Homo sapiens, UniProt P01023); assay: Inhibition of 125I-TGF-β1 and α2M* complex formation (5% non-denaturing PAGE, autoradiography); assay type: binding; details: for IC50: ~1 nM 125I-TGF-β1, 10 μg α2M* in 0.05 ml, 30 min room temperature, non-denaturing PAGE, read-out: IC50 for inhibiting complex formation between TGF-β1 and α2M*
T1 construct: was purified from pooled citrate-treate human plasma; from tissue; host or cells: pooled citrate-treated human plasma
T1 sequence (P01023 24-1474): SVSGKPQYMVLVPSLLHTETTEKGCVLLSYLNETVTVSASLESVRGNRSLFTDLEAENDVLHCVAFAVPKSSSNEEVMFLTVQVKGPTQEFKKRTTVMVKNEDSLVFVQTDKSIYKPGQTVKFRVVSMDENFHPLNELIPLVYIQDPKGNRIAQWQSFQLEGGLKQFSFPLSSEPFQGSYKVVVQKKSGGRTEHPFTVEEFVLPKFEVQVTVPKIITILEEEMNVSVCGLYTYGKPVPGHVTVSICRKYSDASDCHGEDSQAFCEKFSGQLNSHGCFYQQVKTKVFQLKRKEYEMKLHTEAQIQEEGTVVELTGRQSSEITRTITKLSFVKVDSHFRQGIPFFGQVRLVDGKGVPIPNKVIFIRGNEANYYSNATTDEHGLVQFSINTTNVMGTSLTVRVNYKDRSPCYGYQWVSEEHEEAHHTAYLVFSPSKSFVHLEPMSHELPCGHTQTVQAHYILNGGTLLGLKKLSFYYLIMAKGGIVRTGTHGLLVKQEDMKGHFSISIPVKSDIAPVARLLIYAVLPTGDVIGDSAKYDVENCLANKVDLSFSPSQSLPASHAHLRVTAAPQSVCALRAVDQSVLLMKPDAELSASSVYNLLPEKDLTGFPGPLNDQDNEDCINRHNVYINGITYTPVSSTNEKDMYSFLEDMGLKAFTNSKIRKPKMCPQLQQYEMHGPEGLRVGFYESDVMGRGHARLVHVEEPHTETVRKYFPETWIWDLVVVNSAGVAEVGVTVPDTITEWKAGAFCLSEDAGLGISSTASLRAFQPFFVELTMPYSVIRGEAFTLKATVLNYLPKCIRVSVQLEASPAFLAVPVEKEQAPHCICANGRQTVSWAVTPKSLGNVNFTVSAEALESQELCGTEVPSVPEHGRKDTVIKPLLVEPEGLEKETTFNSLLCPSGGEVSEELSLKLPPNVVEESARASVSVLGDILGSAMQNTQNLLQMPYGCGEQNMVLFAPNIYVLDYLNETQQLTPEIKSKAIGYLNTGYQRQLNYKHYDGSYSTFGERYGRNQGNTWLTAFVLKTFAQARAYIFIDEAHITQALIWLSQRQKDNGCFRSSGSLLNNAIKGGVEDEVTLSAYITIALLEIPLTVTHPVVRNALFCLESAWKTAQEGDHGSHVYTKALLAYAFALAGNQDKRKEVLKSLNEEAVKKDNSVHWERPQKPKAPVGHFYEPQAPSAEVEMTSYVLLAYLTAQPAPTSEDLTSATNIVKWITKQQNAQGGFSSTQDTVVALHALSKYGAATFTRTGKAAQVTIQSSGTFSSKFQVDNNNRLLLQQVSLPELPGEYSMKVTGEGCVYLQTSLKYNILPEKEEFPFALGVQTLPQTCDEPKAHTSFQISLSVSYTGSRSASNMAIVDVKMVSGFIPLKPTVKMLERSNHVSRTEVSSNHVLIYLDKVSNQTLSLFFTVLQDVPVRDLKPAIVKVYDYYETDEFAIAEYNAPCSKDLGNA
Description: Saturated and unsaturated fatty acids are present in plasma and tissues (25,26). The effects of various concentrations of saturated fatty acids on the formation of complexes between ^125I-TGF ? β1 and ? 2M* were examined. ^125I-TGF- ? 1 (1 nM) was incubated μg/ml) in the presence of various concentrations of n-caprylic acid ([…]), lauric acid (12 carbon atoms), myristic acid (14 carbon atoms), palmitic acid (16 carbon atoms) and stearic acid (18 carbon atoms). After 30 min at room temperature, the reaction mixture was analyzed by 5% non-denaturing PAGE and autoradiography, a standard method form determining complex formation between TGF-β and α2M* (12). […] At 100 μM, it inhibited 20% of the complex formation between TGF ? β1 and α2M*. Esterification consistently abolished the inhibitory activities of the fatty acids.
Complex formation of ^125I-TGF-β and ? 2M*—The reaction mixture contained 10 μg of . α2M*, ˜1 nM of ^125I-TGF- ? 1, ^125I-TGF ? β2 or ^125I-TGF ? acids (dissolved in 100% ethanol) in 0.05 ml of 50 mM HEPES-NaOH buffer, pH 7.4. The final concentration of ethanol in the reaction mixture was 0.5%. These fatty acids and fatty acid derivatives were soluble under the experimental conditions. After 30 min at room temperature, the complex formation of ^125I-TGF- ? and. α2M* was determined by 5% non-denaturing polyacrylamide gel electrophoresis (PAGE) or by 7.5% SDS-PAGE following cross-linking by 0.6 mM DSS. After electrophoresis, the gel was stained with Coomassie blue and analyzed by autoradiography. The ^125I-TGF- ? - ? 2M* complex which co-migrated with free ? 2M* was quantified using a PhosphoImager (Fuji).

TGF-β3-α2M* complex = target: T2, TGF-β3-α2M* complex (Homo sapiens, UniProt P01023); assay: Inhibition of 125I-TGF-β3 and α2M* complex formation (5% non-denaturing PAGE); assay type: binding; details: 30% inhibition
T2 construct: was purified from pooled citrate-treate human plasma; from tissue; host or cells: pooled citrate-treated human plasma
T2 sequence (P01023 24-1474): T1 sequence (P01023 24-1474)
Description: (§1) TGF- ? isoforms bind to α2M* with different affinities: TGF ? β2>TGF ? β1 ( active sites of TGF ? β1 and TGF- ? 2 responsible for high-affinity binding to ? 2M* are disti from the low-affinity ? 2M* binding site in TGF- ? 3 (19). To determine if fatty acids differentially affect the binding of TGF- ? isoforms to ? 2M*, the effects of various concentrations of arachidonic acid and myristic acid on complex formation of ^125I-labeled TGF ? β isoforms and ? 2M were determined*. […] It inhibited 30% of the complex form . α2M* and TGF ? β2 and TGF ? β3 at 100 and >250 μM, respectively. Arachidon polyunsaturated fatty acid, was a stronger inhibitor of complex formation of ? 2M* and TGF-.β2/TGF ? β3. It inhibited 50% of the complex formation of ? 2M* and ^125I-TGF- ? 2 at 50 μM (FIG. 3A). The observation that myristic acid and arachidonic acid inhibited complex formation of ^125I-TGF- ? […] 2M* complexes in the reaction mixtures were then analyzed by 7.5% SDS-PAGE and autoradiography.
(§2) Complex formation of ^125I-TGF-β and ? […] After 30 min at room temperature, the complex formation of ^125I-TGF- ? and. α2M* was determined by 5% non-denaturing polyacrylamide gel electrophoresis (PAGE) or by 7.5% SDS-PAGE following cross-linking by 0.6 mM DSS. After electrophoresis, the gel was stained with Coomassie blue and analyzed by autoradiography. […] 2M* was quantified using a PhosphoImager (Fuji).

125I-TGF-β1-α2M* complex = target: T3, 125I-TGF-β1-α2M* complex (Homo sapiens, UniProt P01023); assay: Dissociation of preformed 125I-TGF-β1-α2M* complex; assay type: binding; details: at 250 μM
T3 construct: was purified from pooled citrate-treate human plasma; from tissue; host or cells: pooled citrate-treated human plasma
T3 sequence (P01023 24-1474): T1 sequence (P01023 24-1474)
Description: To determine whether fatty acids are capable of dissociating TGF- ? - ? 2M* complexes, various concentrations of arachidonic acid were added to a reaction mixture containing ^125I-TGF- ? 1 or ^125I-TGF ? β3 and α2M* which had been preincubated at room temperature for 30 mi 30 minutes at room temperature, the ^125I-TGF ? β isoform-α2M* complexes in the reaction mixtures were analyzed by 5% non-denaturing PAGE. […] However, lower concentrations of arachidonic acid were effective in inhibiting complex formation of ^125I-TGF- ? 1 and α2M* than were required to dissociate the ^125I-TGF- ? 1- ? 2M* complex.

125I-TGF-β2-α2M* complex = target: T4, 125I-TGF-β2-α2M* complex (Homo sapiens, UniProt P01023); assay: Dissociation of preformed 125I-TGF-β2-α2M* complex; assay type: binding; details: at 250 μM
T4 construct: was purified from pooled citrate-treate human plasma; from tissue; host or cells: pooled citrate-treated human plasma
T4 sequence (P01023 24-1474): T1 sequence (P01023 24-1474)

TGF-β2-α2M* complex = target: T5, TGF-β2-α2M* complex (Homo sapiens, UniProt P01023); assay: Inhibition of 125I-TGF-β2 and α2M* complex formation (5% non-denaturing PAGE); assay type: binding; details: 30% inhibition
T5 construct: was purified from pooled citrate-treate human plasma; from tissue; host or cells: pooled citrate-treated human plasma
T5 sequence (P01023 24-1474): T1 sequence (P01023 24-1474)
Description: as §1, §2

Mv1Lu cells = assay: [Methyl-3H]-thymidine incorporation assay, TGF-β2-induced growth inhibition; assay type: cell-based, mink; details: 1 pM, absence of α2M*
Source text: The levels of TGF ? β and ? 2M* also increase dramatically. α2M* is capable of inhibiting TGF- ? activity by forming complexes with TGF- ? and thus preventing it from binding to TGF ? β receptors in cells involved. Fatty acids may potentiate TGF ? β activity by blocking complex formation of ? 2M* and TGF ? β under these conditions. To test this possibility, we determined the effects of arachidonic acid on ^125I-TGF- ? 2 binding (in the presence and absence of α2M*) to Mv1Lu cells. ? 2M* is known to inhibit TGF- ? 2 more strongly than TGF ? β1 binding to T receptors in cells (13). Various concentrations of ^125I-TGF- ? 2 were preincubated with 200 μg/ml of ? 2M* in the presence or absence of 30 μM arachidonic acid for 30 min prior to the performance of binding assays in Mv1Lu cells. […] The residual ^125I-TGF- ? binding associated with the cells after ? 2M* inhibition was mainly due to non-specific binding of ^125I-TGF- ? 2. […] In the presence of 200 μg/ml of ? 2M*, the dose-response curve of TGF ? β2 shifted to the right. […] Addition of arachidonic acid at 0.5 and 1 μM reversed the inhibitory effect of. α2M* on TGF- ? 2-induced growth inhibition as measured by [methyl-^3H]-thymidine incorporation.
[Methyl-^3H]-Thymidine Incorporation Assay—Mv1Lu cells were plated at a cell density of 7.5×10^4 cells/well in DMEM containing 0.1% fetal calf serum in 48-well cluster dishes. After 4 hr at 37° C. (to allow cell adherence), cells were treated with various concentrations of TGF- ? 2,2M* (0 or 200 μg/ml) and arachidonic acid ([…] or 1 μM). After 1h at 37° C., cells were pulsed with 1 μCi/ml [methyl-^3H]-thymidine for 2 hr. The [methyl-^3H]-th incorporation into cellular DNA was carried out in triplicate as described previously (23).

IC50 (TGF-β1-α2M* complex): 8 ± 2 µM
Molecule: CCCCC/C=C\C/C=C\C/C=C\CCCCC(=O)O [γ-linolenic acid]

IC50 (TGF-β1-α2M* complex): 26 ± 3.1 µM
Molecule: CC/C=C\C/C=C\C/C=C\CCCCCCCC(=O)O [linolenic acid]

IC50 (TGF-β1-α2M* complex): 68 µM
Molecule: CCCCCCCCCCCC(=O)O [lauric acid]

IC50 (TGF-β1-α2M* complex): 5.2 ± 2 µM
Molecule: CCCCCCCC/C=C\CCCCCCCC(=O)O [oleic acid]

inhibitory activity on complex formation of 125I-TGF-β1 and α2M* (TGF-β1-α2M* complex): inactive
Molecule: CCCCC/C=C\C/C=C\C/C=C\C/C=C\CCCC(=O)OC [arachidonic acid methyl ester]

IC50 (TGF-β1-α2M* complex): 30 µM
Molecule: CCCCCC=CCC=CCC=CCC#CCCCC(=O)O [ETYA, 8, 11, 14 eicosatrien-5-ynoic acid]

IC50 (TGF-β1-α2M* complex): 6.6 ± 0.9 µM
Molecule: CCCCCCCCCCCCCCCCCC(=O)O [stearic acid]

Molecule: CCCCCCCCCCCCCC(=O)O [myristic acid]
concentration that inhibited 30% of the complex formation of α2M* and TGF-β3 (TGF-β3-α2M* complex): > 250 µM
dissociation of the 125I-TGF-β1-α2M* complex (125I-TGF-β1-α2M* complex): inactive
dissociation of the 125I-TGF-β2-α2M* complex (125I-TGF-β2-α2M* complex): inactive
concentration that inhibited 30% of the complex formation of α2M* and TGF-β2 (TGF-β2-α2M* complex): 100 µM
IC50 (TGF-β1-α2M* complex): 9.1 µM

IC50 (TGF-β1-α2M* complex): 8.5 ± 1 µM
Molecule: CCCCCCCCCCCCCCCC(=O)O [palmitic acid]

inhibitory activity on complex formation of 125I-TGF-β1 and α2M* (TGF-β1-α2M* complex): relatively weak inhibitor
inhibition of the complex formation between TGF-β1 and α2M* (TGF-β1-α2M* complex; at 100 μM): 20%
Molecule: CCCCCCCC(=O)O [n-caprylic acid]

activity compared with saturated counterparts of identical chain length (TGF-β1-α2M* complex): weaker than their saturated counterparts
Molecule: CCCCCC/C=C\CCCCCCCC(=O)O [palmitoleic acid]

B1: TGF-β2: transforming growth factor β isoform 2, 25-kDa dimeric protein (protein, UniProt P61812 303-414, looked up)
Transforming growth factor …: ALDAAYCFRNVQDNCCLRPLYIDFKRDLGWKWIHEPKGYNANFCAGACPYLWSSDTQHSRVLSLYNTINPEASASPCCVSQDLEPLTILYYIGKTPKIEQLSNMIVKSCKCS
inhibition of [methyl-3H]-thymidine incorporation into DNA (Mv1Lu cells): approximately 25%
